Assays:
PLA2G16 = target: T1, PLA2G16 (Homo sapiens, UniProt P53816); test: Enzyme activity assay for PLA2G16 (Red/Green BODIPY PC-A2 fluorescence); format: biochemical; settings: His-tagged PLA2G16, 4 min pre-incubation, 2 nM to 50 μM; read-out: IC50 values of the compounds determined in the enzyme activity assay for PLA2G16
T1 construct: Hexa-His (N); made in house; host or cells: E. coli BL21(DE3)
T1 sequence (P53816 1-162): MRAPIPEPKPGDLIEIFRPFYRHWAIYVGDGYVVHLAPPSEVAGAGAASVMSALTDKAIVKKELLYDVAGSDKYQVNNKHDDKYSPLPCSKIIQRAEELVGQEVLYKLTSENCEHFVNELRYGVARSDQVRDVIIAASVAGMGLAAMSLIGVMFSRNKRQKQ
Summary of the method: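 N-His-tagged human PLA2G16 from E. coli, Ni-NTA purified. Pre-incubated 4 min with compound (2 nM–50 μM final) in pH 8.5 Tris/NaCl buffer with 5 mM glutathione, then BODIPY PC-A2 in DOPC/DOPG/cholesterol vesicles added. Fluorescence (ex 480/em 530 nm) increase over 10 min taken as activity; IC50 by non-linear regression.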

[1] = test system: picornaviruses (CVB1, HRV-A2, HRV-A23, EV-68); test: Anti-picornavirus cytopathic effect (CPE) reduction assay on HeLa H1 cells; format: cell-based; settings: Enterovirus B, HeLa H1, 48 h, HeLa H1 cells, 48 h, category from averaging the EC50 values from four picornaviruses (CVB1, HRV-A2, HRV-A23, EV68); read-out: EC50 values of the compounds determined in the anti-picornavirus assay
Summary of the method: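 HeLa H1 cells pre-treated 2 h with serially diluted compound in DMEM/2% FBS, then infected at an MOI giving full CPE in 2 days. After 48 h at 37° C, viability read by CellTiterBlue fluorescence (ex 560/em 590 nm), normalised to infected and uninfected vehicle controls; EC50 by non-linear regression, category from mean of four viruses.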

SMILES	IC50 (PLA2G16)	EC50 [1]
CC(C)NC(=O)C(=O)C(C)OC1CCCCC1 (stereo not shown) [FP 125, 3-(Cyclohexyloxy)-2-oxo-N-(propan-2-yl)butanamide]	1000 to 10000 nM	1000 to 10000 nM
CC(OC1CCCCC1)C(=O)C(=O)NCC1CCC1 (stereo not shown) [FP 126, N-(Cyclobutylmethyl)-3-(cyclohexyloxy)-2-oxobutanamide]	< 1000 nM	< 1000 nM
CC(OC1CCCCC1)C(=O)C(=O)NCC1CCCC1 (stereo not shown) [FP 127, 3-(Cyclohexyloxy)-N-(cyclopentylmethyl)-2-oxobutanamide]	< 1000 nM	< 1000 nM
O=C(COCc1ccccc1)C(=O)NCC1CC1 [FP 128, 3-(Benzyloxy)-N-(cyclopropylmethyl)-2-oxopropanamide]	< 1000 nM	< 1000 nM
O=C(COCC1CCCCC1)C(=O)NCC1CC1 [FP 129, 3-(Cyclohexylmethoxy)-N-(cyclopropylmethyl)-2-oxopropanamide]	< 1000 nM	> 10000 nM
CC(C)CC(OCC1CCOCC1)C(=O)C(=O)NCC1CC1 (stereo not shown) [FP 130, N-(Cyclopropylmethyl)-5-methyl-3-[(oxan-4-yl)methoxy]-2-oxohexanamide]	< 1000 nM	1000 to 10000 nM
CC(OCC1CCOCC1)C(=O)C(=O)NCC1CCC1 (stereo not shown) [FP 131, N-(Cyclobutylmethyl)-3-[(oxan-4-yl)methoxy]-2-oxobutanamide]	< 1000 nM	< 1000 nM
CC(OCC1CCOCC1)C(=O)C(=O)NCC1CCCC1 (stereo not shown) [FP 132, N-(Cyclopentylmethyl)-3-[(oxan-4-yl)methoxy]-2-oxobutanamide]	< 1000 nM	< 1000 nM
COc1ccccc1OC(C)C(=O)C(=O)NCc1cccc(Cl)c1 (stereo not shown) [FP 133, N-[(3-Chlorophenyl)methyl]-3-(2-methoxyphenoxy)-2-oxobutanamide]	< 1000 nM	1000 to 10000 nM
CC(OCC1CC1)C(=O)C(=O)NCC1CC1 (stereo not shown) [FP 134, 3-(Cyclopropylmethoxy)-N-(cyclopropylmethyl)-2-oxobutanamide]	< 1000 nM	1000 to 10000 nM
COc1ccccc1OC(C)C(=O)C(=O)NC(C)C (stereo not shown) [FP 135, 3-(2-Methoxyphenoxy)-2-oxo-N-(propan-2-yl)butanamide]	< 1000 nM	1000 to 10000 nM
CC(C)NC(=O)C(=O)C(C)OCc1ccccc1 (stereo not shown) [FP 136, 3-(Benzyloxy)-2-oxo-N-(propan-2-yl)butanamide]	< 1000 nM	< 1000 nM
CC(C)C(OCC1CCOCC1)C(=O)C(=O)NCC1CC1 (stereo not shown) [FP 137, N-(Cyclopropylmethyl)-4-methyl-3-[(oxan-4-yl)methoxy]-2-oxopentanamide]	< 1000 nM	> 10000 nM
O=C(NCC1CC1)C(=O)C1CCC(=O)N1Cc1ccccc1 (stereo not shown) [FP 138, 2-(1-Benzyl-5-oxopyrrolidin-2-yl)-N-(cyclopropylmethyl)-2-oxoacetamide]	< 1000 nM	< 1000 nM
CCC(=O)N(c1ccccc1OC)C(C)C(=O)C(=O)NCc1cccc(Cl)c1 (stereo not shown) [FP 141, N-[(3-Chlorophenyl)methyl]-3-[N-(2-methoxyphenyl)propanamido]-2-oxobutanamide]	< 1000 nM	1000 to 10000 nM
COc1ccccc1N(C(=O)C(C)C)C(C)C(=O)C(=O)NCc1cccc(Cl)c1 (stereo not shown) [FP 142, N-[(3-Chlorophenyl)methyl]-3-[N-(2-methoxyphenyl)-2-methylpropanamido]-2-oxobutanamide]	< 1000 nM	1000 to 10000 nM
CCCC(=O)N(c1ccccc1OC)C(C)C(=O)C(=O)NCc1cccc(Cl)c1 (stereo not shown) [FP 143, N-[(3-Chlorophenyl)methyl]-3-[N-(2-methoxyphenyl)butanamido]-2-oxobutanamide]	< 1000 nM	1000 to 10000 nM
CC(C)C(=O)N(C)C(C)C(=O)C(=O)NCC1CCCCC1 (stereo not shown) [FP 144, N-(Cyclohexylmethyl)-3-(N,2-dimethylpropanamido)-2-oxobutanamide]	< 1000 nM	1000 to 10000 nM
CCC(=O)N(C)C(C)C(=O)C(=O)NCC1CCCCC1 (stereo not shown) [FP 145, N-(Cyclohexylmethyl)-3-(N-methylpropanamido)-2-oxobutanamide]	< 1000 nM	1000 to 10000 nM
CC(C(=O)C(=O)NCC1CCCCC1)N(C)C(=O)C1CC1 (stereo not shown) [FP 146, N-(Cyclohexylmethyl)-3-(1-cyclopropyl-N-methylformamido)-2-oxobutanamide]	< 1000 nM	1000 to 10000 nM
CC(C(=O)C(=O)NCC1CC1)N(C)C(=O)c1ccccc1 (stereo not shown) [FP 149, N-(Cyclopropylmethyl)-3-(N-methyl-1-phenylformamido)-2-oxobutanamide]	< 1000 nM	1000 to 10000 nM

SMILES	IC50 (PLA2G16)	EC50 [1]
CC(C(=O)C(=O)NCC1CC1)N(C)C(=O)C1CCCCC1 (stereo not shown) [FP 150, 3-(1-Cyclohexyl-N-methylformamido)-N-(cyclopropylmethyl)-2-oxobutanamide]	< 1000 nM	1000 to 10000 nM
CC(C)C(=O)N(C)C(C)C(=O)C(=O)NCC1CC1 (stereo not shown) [FP 151, N-(Cyclopropylmethyl)-3-(N,2-dimethylpropanamido)-2-oxobutanamide]	1000 to 10000 nM	> 10000 nM
COC(=O)N(CC1CCOCC1)C(C)C(=O)C(=O)NCC(C)C (stereo not shown) [FP 152, Methyl N-{1-[(2-methylpropyl)carbamoyl]-1-oxopropan-2-yl}-N-[(oxan-4-yl)methyl]carbamate]	1000 to 10000 nM	> 10000 nM
CCCC(NC(=O)c1ccccc1)C(=O)C(=O)NCC1CC1 (stereo not shown) [FP 154, N-(Cyclopropylmethyl)-2-oxo-3-(phenylformamido)hexanamide]	< 1000 nM	1000 to 10000 nM
CCC(NC(=O)c1ccccc1)C(=O)C(=O)NCC1CC1 (stereo not shown) [FP 155, N-(Cyclopropylmethyl)-2-oxo-3-(phenylformamido)pentanamide]	< 1000 nM	1000 to 10000 nM
Cc1ccccc1C(=O)NC(C)C(=O)C(=O)NCC1CC1 (stereo not shown) [FP 156, N-(Cyclopropylmethyl)-3-[(2-methylphenyl)formamido]-2-oxobutanamide]	< 1000 nM	1000 to 10000 nM
Cc1ccc(C(=O)NC(C)C(=O)C(=O)NCC2CC2)cc1 (stereo not shown) [FP 159, N-(Cyclopropylmethyl)-3-[(4-methylphenyl)formamido]-2-oxobutanamide]	< 1000 nM	> 10000 nM
CC(C(=O)C(=O)NCc1cccc(Cl)c1)N(C)C(=O)c1ccccc1 (stereo not shown) [FP 160, N-[(3-Chlorophenyl)methyl]-3-(N-methyl-1-phenylformamido)-2-oxobutanamide]	< 1000 nM	1000 to 10000 nM
CC(NC(=O)C1CCCCC1)C(=O)C(=O)NCC1CC1 (stereo not shown) [FP 161, 3-(Cyclohexylformamido)-N-(cyclopropylmethyl)-2-oxobutanamide]	< 1000 nM	> 10000 nM
CC(C(=O)C(=O)NCC1CCCCC1)N(C(=O)CNS(C)(=O)=O)C1CCCCC1 (stereo not shown) [FP 162, 3-(N-Cyclohexyl-2-methanesulfonamidoacetamido)-N-(cyclohexylmethyl)-2-oxobutanamide]	10000 to 50000 nM	> 10000 nM
CC(NC(=O)c1c(Cl)cccc1Cl)C(=O)C(=O)NCC1CC1 (stereo not shown) [FP 163, N-(Cyclopropylmethyl)-3-[(2,6-dichlorophenyl)formamido]-2-oxobutanamide]	< 1000 nM	< 1000 nM
CC(NC(=O)c1ccccc1F)C(=O)C(=O)NCC1CC1 (stereo not shown) [FP 164, N-(Cyclopropylmethyl)-3-[(2-fluorophenyl)formamido]-2-oxobutanamide]	< 1000 nM	1000 to 10000 nM
CC(C)C(NC(=O)c1ccccc1)C(=O)C(=O)NCC1CC1 (stereo not shown) [FP 165, N-(Cyclopropylmethyl)-4-methyl-2-oxo-3-(phenylformamido)pentanamide]	< 1000 nM	> 10000 nM
CC(NC(=O)c1ccccc1Br)C(=O)C(=O)NCC1CC1 (stereo not shown) [FP 166, 3-[(2-Bromophenyl)formamido]-N-(cyclopropylmethyl)-2-oxobutanamide]	< 1000 nM	1000 to 10000 nM
CC(NC(=O)Cc1ccccc1)C(=O)C(=O)NCC1CC1 (stereo not shown) [FP 167, N-(Cyclopropylmethyl)-2-oxo-3-(2-phenylacetamido)butanamide]	< 1000 nM	> 10000 nM
COc1ccccc1C(=O)NC(C)C(=O)C(=O)NCC1CC1 (stereo not shown) [FP 168, N-(Cyclopropylmethyl)-3-[(2-methoxyphenyl)formamido]-2-oxobutanamide]	< 1000 nM	1000 to 10000 nM
CC(NC(=O)c1ccccc1Cl)C(=O)C(=O)NCC1CC1 (stereo not shown) [FP 169, 3-[(2-Chlorophenyl)formamido]-(cyclopropylmethyl)-2-oxobutanamide]	< 1000 nM	1000 to 10000 nM
CC(NC(=O)c1ccc(Cl)cc1)C(=O)C(=O)NCC1CC1 (stereo not shown) [FP 170, 3-[(4-Chlorophenyl)formamido]-N-(cyclopropylmethyl)-2-oxobutanamide]	< 1000 nM	1000 to 10000 nM
Cc1cccc(C(=O)NC(C)C(=O)C(=O)NCC2CC2)c1 (stereo not shown) [FP 171, N-(Cyclopropylmethyl)-3-[(3-methylphenyl)formamido]-2-oxobutanamide]	1000 to 10000 nM	> 10000 nM
CC(NC(=O)c1cccc(Cl)c1)C(=O)C(=O)NCC1CC1 (stereo not shown) [FP 172, 3-[(3-Chlorophenyl)formamido]-N-(cyclopropylmethyl)-2-oxobutanamide]	< 1000 nM	1000 to 10000 nM
